Reference: patent publication US20090124672A1 (priority 2007, published 2009)
Several values for one entry are separate records, joined by “and”; a condition that tells them apart may be missing. Equal entries are not always repeated.

Key:
[1] = biological target: T1, hALDH2 (recombinant human mitochondria ALDH) (Homo sapiens, UniProt P05091); assay: ALDH2 inhibition assay (NADH formation, formaldehyde substrate); format: biochemical; details: for inhibition at 1 µM: read-out: hALDH2 inhibition (IC50 hALDH2 column)
T1 sequence (P05091 18-517): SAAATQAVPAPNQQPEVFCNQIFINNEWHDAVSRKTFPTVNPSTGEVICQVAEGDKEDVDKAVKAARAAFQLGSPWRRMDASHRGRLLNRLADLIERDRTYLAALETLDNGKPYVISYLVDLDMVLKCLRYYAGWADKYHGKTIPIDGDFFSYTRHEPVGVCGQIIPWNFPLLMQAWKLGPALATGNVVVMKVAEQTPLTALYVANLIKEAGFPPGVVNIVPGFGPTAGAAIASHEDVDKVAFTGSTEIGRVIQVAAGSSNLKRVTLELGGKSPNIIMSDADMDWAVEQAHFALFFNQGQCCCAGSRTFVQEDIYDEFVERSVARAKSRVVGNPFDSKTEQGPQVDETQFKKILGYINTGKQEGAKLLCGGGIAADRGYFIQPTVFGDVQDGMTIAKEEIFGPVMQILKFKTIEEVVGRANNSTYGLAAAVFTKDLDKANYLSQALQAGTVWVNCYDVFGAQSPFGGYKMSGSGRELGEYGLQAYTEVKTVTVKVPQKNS
Protocol: ALDH2 inhibition assays were performed in sodium phosphate buffer (50 mM, pH 7.4) containing 1.2 mM NAD^+ (Sigma N7004), 1 nM hALDH2 (recombinant human mitochondria ALDH), various concentrations of test compounds (from 0.03 nM to 1000 nM), and 0.15 mM freshly prepared formaldehyde solution (Ladd Research 20295). Reactions were initiated by the addition of formaldehyde and rates were recorded by monitoring NADH formation in a temperature controlled (25° C.) FluoroMax-2 Fluorimeter with excitation and emission wavelengths set at 340 and 460 nm, respectively. […] Normally, IC50 values were determined by fitting concentration-inhibition data to sigmoidal dose-response curves with two-floating parameters: IC50 and Hill coefficient. When tight binding situation was suspected, apparent Ki values were estimated by fitting dose-response data to Morrison's equation [Methods in Enzymology 63, 437-467, 1979].

[2] = biological target: T2, hMAO-B (Homo sapiens, UniProt P27338); assay: MAO-B inhibition assay (Amplex Red, horseradish peroxidase-coupled); format: biochemical; details: at 10 μM; for inhibition at 10 µM: read-out: hMAO-B inhibition (IC50 hMAO-B)
T2 construct: purchased Sigma M7441
T2 sequence (P27338 1-520): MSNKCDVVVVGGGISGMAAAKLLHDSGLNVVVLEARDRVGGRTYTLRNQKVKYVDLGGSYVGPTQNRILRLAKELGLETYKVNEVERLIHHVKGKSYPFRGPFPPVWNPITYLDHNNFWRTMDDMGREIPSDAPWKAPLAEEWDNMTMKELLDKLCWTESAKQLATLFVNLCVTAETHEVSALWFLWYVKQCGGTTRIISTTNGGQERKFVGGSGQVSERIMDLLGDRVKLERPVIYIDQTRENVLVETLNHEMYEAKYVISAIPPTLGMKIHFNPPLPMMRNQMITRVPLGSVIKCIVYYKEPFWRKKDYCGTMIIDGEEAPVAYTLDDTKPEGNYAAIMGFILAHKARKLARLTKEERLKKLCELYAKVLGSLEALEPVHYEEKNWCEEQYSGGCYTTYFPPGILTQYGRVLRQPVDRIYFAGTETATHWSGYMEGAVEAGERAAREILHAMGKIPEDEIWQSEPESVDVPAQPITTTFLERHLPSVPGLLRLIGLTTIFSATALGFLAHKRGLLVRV
Protocol: MAO-A (Sigma M7316) and MAO-B (Sigma M7441) inhibition assays were conducted in 96-well micro-plates according to the method described by Zhou et al. [Analytical Biochemistry 253, 169-174, 1997]. Both assays were performed in potassium phosphate buffer (0.1 M, pH 7.5) containing 0.5 mM tyramine (Sigma T2879), 0.12 mM N-acetyl-3,7-dihydrophenoxazine (Amplex Red, Invitrogen A12222), 1.2 unit/ml horseradish peroxidase (Sigma P2088), 0.6 unit/ml MAO-A or 2.5 unit/ml MAO-B, and various concentrations of test compounds (0.1 nM to 10 uM). Reactions were initiated by the addition of a pre-mixed solution of tyramine, horseradish peroxidase and Amplex Red, and were allowed to proceed at 37° C. for 30 min. Enzyme activities were determined by measuring absorbance at 570 nm (SpectralMax Plate reader), absorbance of oxidized Amplex Red generated by this horseradish peroxidase-coupled reaction. Nonspecifically formed products were determined in the presence of 2 and 10 µM clorgyline and deprenyl for MAO-A and MAO-B, respectively. IC50 values were determined by fitting concentration-inhibition data to sigmoidal dose-response curves with two-floating parameters: IC50 and Hill coefficient.

| Compound | inhibition at 1 µM [1] [%] | inhibition at 10 µM [2] [%] | IC50 [1] | hMAO-B inhibition (IC50 hMAO-B) [2] [%] |
| --- | --- | --- | --- | --- |
| Cc1nc(-c2ccc(C(F)(F)F)cc2)sc1COc1ccc2c(=O)c(-c3ccc(NS(C)(=O)=O)cc3)coc2c1 [PT-66, 3-{4-[(methylsulfonyl)amino]phenyl}-7-({4-methyl-2-[4-(trifluoromethyl)phenyl](1,3-thiazol-5-yl)}methoxy)chromen-4-one] | 48 | 25 |  |  |
| O=c1c(-c2ccc(O)cc2)coc2cc(OCc3nnc(-c4cccc(C(F)(F)F)c4)o3)ccc12 [PT-60, 3-(4-hydroxyphenyl)-7-({5-[3-(trifluoromethyl)phenyl](1,3,4-oxadiazol-2-yl)}methoxy)chromen-4-one] |  | 13 | 42 nM |  |
| N#Cc1ccc(-c2coc3cc(OCc4nnc(-c5cc(F)cc(C(F)(F)F)c5)o4)ccc3c2=O)cc1 [PT-68, 4-[7-({5-[5-fluoro-3-(trifluoromethyl)phenyl](1,3,4-oxadiazol-2-yl)}methoxy)-4-oxochromen-3-yl]benzenecarbonitrile] | 33 | 14 |  |  |
| O=c1c(-c2ccc(O)cc2)coc2cc(OC[C@H](O)CNCc3cccc(C(F)(F)F)c3)ccc12 [PT-53, 7-[(2R)-2-hydroxy-3-({[3-(trifluoromethyl)phenyl]methyl}amino)propoxy]-3-(4-hydroxyphenyl)chromen-4-one] |  | 19 | 16 nM | 19 |
| COC(=O)c1coc(COc2ccc3c(=O)c(-c4ccc(O)cc4)coc3c2)n1 [PT-101, methyl 2-{[3-(4-hydroxyphenyl)-4-oxochromen-7-yloxy]methyl}-1,3-oxazole-4-carboxylate] |  | 34 | 5 nM |  |
| O=c1c(-c2ccc(O)cc2)coc2cc(OCc3cnc(-c4ccccc4)o3)ccc12 [PT-61, 3-(4-hydroxyphenyl)-7-[(2-phenyl(1,3-oxazol-5-yl))methoxy]chromen-4-one] |  | 17 | 96 nM |  |
| 7-({5-[3-fluoro-5-(trifluoromethyl)phenyl](1,2,4-oxadiazol-3-yl)}ethoxy)-3-(4-hydroxyphenyl)chromen-4-one [PT-79] |  |  | 48 nM | 18 |
| C[C@@H](NC(=O)COc1ccc2c(=O)c(-c3ccc(O)cc3)coc2c1)c1ccc(F)cc1 [PT-90, N-[(1R)-1-(4-fluorophenyl)ethyl]-2-[3-(4-hydroxyphenyl)-4-oxochromen-7-yloxy]acetamide] |  | 12 | 6 nM |  |
| O=c1c(-c2ccc(O)cc2)coc2cc(OCc3noc(-c4ccc(F)cc4)n3)ccc12 [PT-11, 7-{[5-(4-fluorophenyl)(1,2,4-oxadiazol-3-yl)]methoxy}-3-(4-hydroxyphenyl)chromen-4-one] |  | 35 | 16 nM and 20 nM |  |
| 3-(4-hydroxyphenyl)-7-(2-{4-[3-(trifluoromethyl)phenyl]piperazinyl}ethoxy)chromen-4-one [PT-124] |  |  | 18 nM | 21 |
| O=c1c(-c2ccc(O)cc2)coc2cc(OCCc3cccc(C(F)(F)F)c3)ccc12 [PT-59, 3-(4-hydroxyphenyl)-7-{[3-(trifluoromethyl)phenyl]ethoxy}chromen-4-one] |  |  | 670 nM | 24 |
| Cc1nc(-c2ccc(C(F)(F)F)cc2)sc1COc1ccc2c(=O)c(-c3ccc(C#N)cc3)coc2c1 [PT-65, 4-[7-({4-methyl-2-[4-(trifluoromethyl)phenyl](1,3-thiazol-5-yl)}methoxy)-4-oxochromen-3-yl]benzenecarbonitrile] | 30 | 25 |  |  |
| COc1ccc(-c2coc3cc(OCc4sc(-c5ccc(C(F)(F)F)cc5)nc4C)ccc3c2=O)cn1 [PT-67, 3-(6-methoxy(3-pyridyl))-7-({4-methyl-2-[4-(trifluoromethyl)phenyl](1,3-thiazol-5-yl)}methoxy)chromen-4-one] | 25 | 16 |  |  |
| 3-(4-hydroxyphenyl)-7-[(5-(3-pyridyl)(1,3,4-oxadiazol-2-yl))ethoxy]chromen-4-one [PT-113] |  |  | 17 nM | 30 |
| CS(=O)(=O)c1ccc(-c2coc3cc(OCc4noc(-c5cc(F)cc(C(F)(F)F)c5)n4)ccc3c2=O)cc1 [PT-71, 7-({5-[3-fluoro-5-(trifluoromethyl)phenyl](1,2,4-oxadiazol-3-yl)}methoxy)-3-[4-(methylsulfonyl)phenyl]chromen-4-one] | 8 | 11 |  |  |
| O=c1c(-c2ccc(O)cc2)coc2cc(OCc3nnc(-c4cc(F)cc(C(F)(F)F)c4)o3)ccc12 [PT-74, 7-({5-[3-fluoro-5-(trifluoromethyl)phenyl](1,3,4-oxadiazol-2-yl)}methoxy)-3-(4-hydroxyphenyl)chromen-4-one] |  | 22 | 5 nM |  |
| O=C(COc1ccc2c(=O)c(-c3ccc(O)cc3)coc2c1)Nc1ccccc1C(F)(F)F [PT-84, 2-[3-(4-hydroxyphenyl)-4-oxochromen-7-yloxy]-N-[2-(trifluoromethyl)phenyl]-acetamide] |  | 20 | 15 nM |  |
| O=c1c(-c2ccc(O)cc2)coc2cc(OC[C@H](O)CNCc3cc(F)cc(F)c3)ccc12 [PT-55, 7-((2R)-3-{[(3,5-difluorophenyl)methyl]amino}-2-hydroxypropoxy)-3-(4-hydroxyphenyl)chromen-4-one] |  | 14 | 8 nM | 14 |
| O=c1c(-c2ccc(O)cc2)coc2cc(OCc3nnc(-c4cccc(F)c4)o3)ccc12 [PT-58, 7-{[5-(3-fluorophenyl)(1,3,4-oxadiazol-2-yl)]methoxy}-3-(4-hydroxyphenyl)chromen-4-one] |  | 25 | 11 nM |  |
| O=c1c(-c2ccc(O)cc2)coc2cc(OCCc3ccccc3)ccc12 [PT-87, 3-(4-hydroxyphenyl)-7-(2-phenylethoxy)chromen-4-one] | 0.04 | 21 |  |  |
| O=c1c(-c2ccc(O)cc2)coc2cc(OCCNCc3cccc(C(F)(F)F)c3)ccc12 [PT-99, 3-(4-hydroxyphenyl)-7-[2-({[3-(trifluoromethyl)phenyl]methyl}amino)ethoxy]chromen-4-one] |  |  | 5 nM |  |
| O=c1c(-c2ccc(O)cc2)coc2cc(OCc3cc(-c4ccc(Cl)c(Cl)c4)on3)ccc12 [PT-96, 7-{[5-(3,4-dichlorophenyl)isoxazol-3-yl]methoxy}-3-(4-hydroxyphenyl)chromen-4-one] | 47 |  |  |  |
| O=c1c(-c2ccc(O)cc2)coc2cc(OCc3nc(-c4ccccc4)no3)ccc12 [PT-43, 3-(4-hydroxyphenyl)-7-[(3-phenyl(1,2,4-oxadiazol-5-yl))methoxy]chromen-4-one] |  |  | 470 nM |  |
| O=c1c(-c2ccc(O)cc2)coc2cc(OCc3coc(-c4ccc(F)c(F)c4)n3)ccc12 [PT-15, 7-{[2-(3,4-difluorophenyl)(1,3-oxazol-4-yl)]methoxy}-3-(4-hydroxyphenyl)chromen-4-one] |  |  | 120 nM |  |
| 3-(4-hydroxyphenyl)-7-[(6-pyrazolyl(3-pyridyl))methoxy]chromen-4-one [PT-52] |  |  | 10 nM |  |
